Structures are written as SMILES. The source made the active and inactive calls. The rule behind the calls is not given here.

Format in all cases: functional, cell-based
Assay [1] relates to MCF7. As to the kind of experiment: Cytotoxicity against human MCF7 cells measured after 24 hrs by MTT assay. The settings on record: MCF7, 24 h.
Assay [2] deals with MCF7. Put plainly: Downregulation of ATG7 gene in human MCF7 cells at 5 uM by heat map analysis.
The test system of assay [3] is MCF7. As to the kind of experiment: Downregulation of ACSL4 gene in human MCF7 cells at 5 uM by heat map analysis.
Assay [4] concerns MCF7. As to the kind of experiment: Downregulation of NOXO1 gene in human MCF7 cells at 5 uM by heat map analysis.
Assay [5] relates to MCF7. Put plainly: Downregulation of NOXA1 gene in human MCF7 cells at 5 uM by heat map analysis.
In assay [6] the test system is MCF7. Put plainly: Downregulation of ACSL5 gene in human MCF7 cells at 5 uM by heat map analysis.
Assay [7] deals with MCF7. Put plainly: Downregulation of LPCAT3 gene in human MCF7 cells at 5 uM by heat map analysis.
The test system of assay [8] is MCF7. Put plainly: Downregulation of STEAP3 gene in human MCF7 cells at 5 uM by heat map analysis.
In assay [9] the test system is MCF7. As to the kind of experiment: Downregulation of TP53 gene in human MCF7 cells at 5 uM by heat map analysis.

Compound `O=c1cc(-c2ccc(Oc3cc(-c4cc(=O)c5c(O)cc(O)cc5o4)ccc3O)cc2)oc2cc(O)cc(O)c12` [OCHNAFLAVONE] registered an IC50 in assay [1] of 54.5 µM. Take `O=c1[nH]cc(F)c(=O)[nH]1` [FLUOROURACIL]: the IC50 in assay [1] was 2.2 µM. The same measure, in the same setting: with `Cc1c(O)cc2c(c1O)C(=O)C[C@H](c1ccc(Oc3cc(-c4cc(=O)c5c(O)cc(O)cc5o4)ccc3O)cc1)O2` the figure was 32.2 µM. For the compound `COc1cc(O)c2c(=O)cc(-c3ccc(O)c(-c4c(O)cc5oc(-c6ccc(O)cc6)cc(=O)c5c4OC)c3)oc2c1`, the inhibition entry in assay [2], in assay [3], in assay [4], in assay [5], in assay [6] and in assay [7] was “Active” each time. Also, the inhibition entry in assay [8] and in assay [9] was “Active” throughout. Moreover, the IC50 in assay [1] amounted to 6.9 µM. Regarding `O=c1cc(-c2ccc(O)c(-c3c(O)cc(O)c4c(=O)cc(-c5ccc(O)cc5)oc34)c2)oc2cc(O)cc(O)c12` [AMENTOFLAVONE], the half-inhibitory concentration (IC50) in [1] came out at 75.4 µM. Same read-out and setting: with `COc1ccc(-c2cc(=O)c3c(O)cc(O)c(-c4cc(-c5cc(=O)c6c(O)cc(O)cc6o5)ccc4O)c3o2)cc1` [PODOCARPUSFLAVONE A] the figure was 35.1 µM. Compound `COc1cc(O)c2c(=O)cc(-c3ccc(O)c(-c4c(O)cc(O)c5c(=O)cc(-c6ccc(O)cc6)oc45)c3)oc2c1` [SEQUOIAFLAVONE] came in with an IC50 in assay [1] of 58.4 µM. `O=C1C[C@H](c2ccc(Oc3cc(-c4cc(=O)c5c(O)cc(O)cc5o4)ccc3O)cc2)Oc2cc(O)cc(O)c21` displayed an IC50 in assay [1] of 7.7 µM. Still for that read-out and setting: in the case of `COc1ccc(-c2cc(=O)c3c(O)cc(O)cc3o2)cc1-c1c(O)cc(O)c2c(=O)cc(-c3ccc(O)cc3)oc12` [BILOBETIN] it was 26.5 µM. In the case of `O=C1CC(c2ccc(O)c(-c3c(O)cc4c(c3O)C(=O)CC(c3ccc(O)cc3)O4)c2)Oc2cc(O)cc(O)c21` (stereo not drawn), half-maximal inhibition in [1] (IC50) was put at 71.2 µM.

In general, IC50 refers to the concentration at which inhibition is half-maximal.

The values above are taken from ChEMBL document CHEMBL5131413, “Cytotoxic effects of the biflavonoids isolated from Selaginella trichoclada on MCF-7 cells and its potential mechanism” (Bioorg Med Chem Lett, 2022).
